One assay deals with T1, AKT1 WT (Homo sapiens, UniProt P31749).
T1 construct: expressed in transfected cells; host or cells: HEK293
Kind of assay: Live cell target engagement by NanoBRET competitive probe displacement, AKT1 WT. The assay is classed as binding. Conditions: transfected HEK293 cells, 2 h at 37° C., read-out: AKT1 WT IC50: GeoMean IC50. Background: BRET reads energy transfer from a luciferase to a nearby fluorophore.

Another assay has as its target T2, AKT2 (Homo sapiens, UniProt P31751).
T2 construct: expressed in transfected cells; host or cells: HEK293
Kind of assay: Live cell target engagement by NanoBRET competitive probe displacement, AKT2. Particulars: transfected HEK293 cells, 2 h at 37° C., read-out: AKT2 IC50: GeoMean IC50. The assay is classed as binding.

The next assay concerns the target T3, AKT1 E17K (Homo sapiens, UniProt P31749, E17K).
T3 construct: expressed in transfected cells; host or cells: HEK293
Kind of assay: Live cell target engagement by NanoBRET competitive probe displacement, AKT1 E17K. The format is binding. Conditions: transfected HEK293 cells, 2 h at 37° C., read-out: AKT1 E17K IC50: GeoMean IC50.

The subject of assay [1] is LAPC4 prostate cancer cells, which express the AKT1 E17K allele. Kind of assay: Antiproliferative effects in LAPC4 cells (CellTiter Glo, 72 h). Particulars: Homo sapiens, LAPC4, 72 h, read-out: LAPC4 proliferation IC50: GeoMean IC50. The assay is classed as cell-based. The method, boiled down: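 IC50 values come from Hill-equation fitting of luminescence (cellular ATP) after 72 h compound exposure. Treated wells held 1,000 cells each, with compound delivered as DMSO dilutions. Culture medium was IMDM plus 12% FBS.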
(Cellular ATP, detected with luciferase, serves as a proxy for viable cell number.)

Each structure is given as a SMILES string. Bounds are passed on as bounds.

The results in this text go back to US20260053834A1, “COVALENT MODIFIERS OF AKT1 AND USES THEREOF” (Terremoto Biosciences, Inc., priority 2023, published 2026).

T1 sequence (P31749 whole entry): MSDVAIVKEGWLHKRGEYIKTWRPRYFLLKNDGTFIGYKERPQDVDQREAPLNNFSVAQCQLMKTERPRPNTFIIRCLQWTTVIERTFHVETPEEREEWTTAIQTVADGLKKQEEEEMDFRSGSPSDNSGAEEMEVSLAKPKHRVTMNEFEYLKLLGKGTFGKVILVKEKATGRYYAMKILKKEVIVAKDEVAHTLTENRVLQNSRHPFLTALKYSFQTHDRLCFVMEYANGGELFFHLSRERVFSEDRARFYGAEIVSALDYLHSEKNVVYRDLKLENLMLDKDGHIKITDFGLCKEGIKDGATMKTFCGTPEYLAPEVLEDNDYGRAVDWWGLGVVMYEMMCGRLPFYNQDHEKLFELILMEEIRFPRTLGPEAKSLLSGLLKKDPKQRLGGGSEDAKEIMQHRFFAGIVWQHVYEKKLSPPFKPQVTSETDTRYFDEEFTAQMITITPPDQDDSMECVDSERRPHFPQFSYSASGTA
T2 sequence (P31751 whole entry): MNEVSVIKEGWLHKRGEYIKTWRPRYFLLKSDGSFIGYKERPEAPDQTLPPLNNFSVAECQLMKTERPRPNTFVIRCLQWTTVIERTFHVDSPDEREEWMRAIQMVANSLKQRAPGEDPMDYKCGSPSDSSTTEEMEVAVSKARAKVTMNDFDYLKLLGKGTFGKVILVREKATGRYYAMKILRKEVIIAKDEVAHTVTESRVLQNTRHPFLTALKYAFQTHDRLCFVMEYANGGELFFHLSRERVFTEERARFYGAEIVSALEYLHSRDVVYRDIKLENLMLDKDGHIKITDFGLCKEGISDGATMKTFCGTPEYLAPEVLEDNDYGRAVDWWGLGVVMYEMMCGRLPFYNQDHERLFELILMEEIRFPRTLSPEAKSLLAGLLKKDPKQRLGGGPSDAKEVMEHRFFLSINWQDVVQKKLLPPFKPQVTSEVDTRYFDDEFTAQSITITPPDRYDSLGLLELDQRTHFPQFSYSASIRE
T3 sequence (P31749 whole entry E17K): as the sequence (P31749 whole entry) above, with E17K counted along it

Regarding `Nc1ncccc1-c1nc2ccc(-n3cccn3)nc2n1-c1ccc2c(c1)CC(F)[C@@H]2NC(=O)c1cc(C=O)c(O)cc1F` (single isomer, unassigned) [Example 258, N-((1R,2R*)-5-(2-(2-aminopyridin-3-yl)-5-(1H-pyrazol-1-yl)-3H-imidazo[4,5-b]pyridin-3-yl)-2-fluoro-2,3-dihydro-1H-inden-1-yl)-2-fluoro-5-formyl-4-hydroxybenzamide], the IC50 was 10 to 100 nM on AKT1 WT, 10 to 100 nM at AKT2, < 10 nM at AKT1 E17K and 10 to 100 nM in assay [1].

Take `COc1cncc(-c2ccc3nc(-c4cccnc4N)n(-c4ccc5c(c4)CC[C@@H]5NC(=O)c4ccc(O)c(C=O)c4)c3n2)n1` [Example 80, N-[(1S)-5-[2-(2-aminopyridin-3-yl)-5-(6-methoxypyrazin-2-yl)imidazo[4,5-b]pyridin-3-yl]-2,3-dihydro-1H-inden-1-yl]-3-formyl-4-hydroxybenzamide]: the IC50 lay in the range of 10 to 100 nM at AKT1 WT, 100 to 2000 nM on AKT2, 10 to 100 nM on AKT1 E17K and 100 to 2000 nM in assay [1].

Regarding `Cc1cnc(-c2ccc3nc(-c4cccnc4N)n(-c4ccc5c(c4)CC[C@@H]5NC(=O)c4cc(C=O)c(O)c(F)c4F)c3n2)s1` [Example 186, N-[(1S)-5-[2-(2-aminopyridin-3-yl)-5-(5-methyl-1,3-thiazol-2-yl)imidazo[4,5-b]pyridin-3-yl]-2,3-dihydro-1H-inden-1-yl]-2,3-difluoro-5-formyl-4-hydroxybenzamide], the IC50 on AKT1 WT lay in the range of 10 to 100 nM; at AKT2, 100 to 2000 nM; at AKT1 E17K it was 10 to 100 nM; in assay [1], 10 to 100 nM.

Consider `Cn1c(=O)[nH]c2c(C=O)cc(C(=O)N[C@H]3CCc4cc(-n5c(-c6cccnc6N)nc6ccc(-n7cccn7)nc65)ccc43)cc21` [Example 170, (S)—N-(5-(2-(2-aminopyridin-3-yl)-5-(1H-pyrazol-1-yl)-3H-imidazo[4,5-b]pyridin-3-yl)-2,3-dihydro-1H-inden-1-yl)-7-formyl-3-methyl-2-oxo-2,3-dihydro-1H-benzo[d]imidazole-5-carboxamide], for which the IC50 on AKT1 WT is < 10 nM; on AKT2 it was 100 to 2000 nM; at AKT1 E17K it was < 10 nM; in assay [1], 10 to 100 nM.

As to `CN1CCN(c2ccc3nc(-c4cccnc4N)n(-c4ccc5c(c4)CC[C@@H]5NC(=O)c4ccc(O)c(C=O)c4)c3n2)CC1` [Example 38, (S)—N-(5-(2-(2-aminopyridin-3-yl)-5-(4-methylpiperazin-1-yl)-3H-imidazo[4,5-b]pyridin-3-yl)-2,3-dihydro-1H-inden-1-yl)-3-formyl-4-hydroxybenzamide], the IC50 on AKT1 WT is 100 to 2000 nM; on AKT2, ≥ 2000 nM; on AKT1 E17K it was 10 to 100 nM; in assay [1], 100 to 2000 nM.

Consider `Nc1ncccc1-c1nc2c(N3CCOCC3)cc(-n3cccn3)nc2n1-c1ccc2c(c1)CC[C@@H]2NC(=O)c1ccc(O)c(C=O)c1` [Example 224, N-[(1S)-5-[2-(2-aminopyridin-3-yl)-7-(morpholin-4-yl)-5-(pyrazol-1-yl)imidazo[4,5-b]pyridin-3-yl]-2,3-dihydro-1H-inden-1-yl]-3-formyl-4-hydroxybenzamide], for which the IC50 on AKT1 WT is 10 to 100 nM; on AKT2, 100 to 2000 nM; on AKT1 E17K it was 10 to 100 nM; in assay [1] it was 10 to 100 nM.

On to `Cn1cc(-c2ccc3nc(-c4cccnc4N)n(-c4ccc5c(c4)CC[C@@H]5NC(=O)c4ccc(O)c(C=O)c4)c3n2)cn1` [Example 28, (S)—N-(5-(2-(2-aminopyridin-3-yl)-5-(1-methyl-1H-pyrazol-4-yl)-3H-imidazo[4,5-b]pyridin-3-yl)-2,3-dihydro-1H-inden-1-yl)-3-formyl-4-hydroxybenzamide], for which the IC50 on AKT1 WT fell in the range of 10 to 100 nM; at AKT2, 100 to 2000 nM; at AKT1 E17K, 10 to 100 nM; in assay [1], 10 to 100 nM.

As for `CN(C)Cc1cc(C(=O)N[C@H]2CCc3cc(-n4c(-c5cccnc5N)nc5ccc(-n6cccn6)nc54)ccc32)cc(C=O)c1O` [Example 192, N-[(1S)-5-[2-(2-aminopyridin-3-yl)-5-(pyrazol-1-yl)imidazo[4,5-b]pyridin-3-yl]-2,3-dihydro-1H-inden-1-yl]-3-[(dimethylamino)methyl]-5-formyl-4-hydroxybenzamide], the IC50 at AKT1 WT is 100 to 2000 nM; on AKT2, ≥ 2000 nM; on AKT1 E17K it was 100 to 2000 nM; in assay [1] it was ≥ 2000 nM.

With `Nc1ncccc1-c1nc2ccc(-c3ccccc3)nc2n1-c1ccc2c(c1)CC[C@@H]2NC(=O)c1ccc(O)c(C=O)c1` [Example 5, (S)—N-(5-(2-(2-aminopyridin-3-yl)-5-phenyl-3H-imidazo[4,5-b]pyridin-3-yl)-2,3-dihydro-1H-inden-1-yl)-3-formyl-4-hydroxybenzamide], the IC50 (on AKT1 WT; on AKT2; on AKT1 E17K; in assay [1]) was 10 to 100 nM each time.

On to `Nc1ncccc1-c1nc2ccc(-c3ccccc3F)nc2n1-c1ccc2c(c1)CC[C@@H]2NC(=O)c1ccc(O)c(C=O)c1` [Example 21, N-[(1S)-5-[2-(2-aminopyridin-3-yl)-5-(2-fluorophenyl)imidazo[4,5-b]pyridin-3-yl]-2,3-dihydro-1H-inden-1-yl]-3-formyl-4-hydroxybenzamide], for which the IC50 (on AKT1 WT; at AKT2; on AKT1 E17K; in assay [1]) was 10 to 100 nM each time.

For the compound `C#Cc1cc(C(=O)N[C@H]2CCc3cc(-n4c(-c5cccnc5N)nc5ccc(-n6cccn6)nc54)ccc32)cc(C=O)c1O` [Example 101, N-[(1S)-5-[2-(2-aminopyridin-3-yl)-5-(pyrazol-1-yl)imidazo[4,5-b]pyridin-3-yl]-2,3-dihydro-1H-inden-1-yl]-3-ethynyl-5-formyl-4-hydroxybenzamide], the IC50 was 10 to 100 nM at AKT1 WT, 100 to 2000 nM at AKT2, 10 to 100 nM at AKT1 E17K and 100 to 2000 nM in assay [1].

Take `Nc1ncccc1-c1nc2ccc(Cl)nc2n1-c1ccc2c(c1)CC[C@@H]2NC(=O)c1ccc(O)c(C=O)c1` [Example 136, N-[(1S)-5-[2-(2-aminopyridin-3-yl)-5-chloroimidazo[4,5-b]pyridin-3-yl]-2,3-dihydro-1H-inden-1-yl]-3-formyl-4-hydroxybenzamide]: the IC50 on AKT1 WT was 100 to 2000 nM; at AKT2, ≥ 2000 nM; at AKT1 E17K it was 10 to 100 nM; in assay [1], 100 to 2000 nM.

Regarding `Nc1ncccc1-c1nc2c(OC(F)F)cc(-n3cccn3)nc2n1-c1ccc2c(c1)CC[C@@H]2NC(=O)c1ccc(O)c(C=O)c1` [Example 225, N-[(1S)-5-[2-(2-aminopyridin-3-yl)-7-(difluoromethoxy)-5-(pyrazol-1-yl)imidazo[4,5-b]pyridin-3-yl]-2,3-dihydro-1H-inden-1-yl]-3-formyl-4-hydroxybenzamide], the IC50 on AKT1 WT lay in the range of 10 to 100 nM; on AKT2, 100 to 2000 nM; at AKT1 E17K, 10 to 100 nM; in assay [1], 10 to 100 nM.

As to `Nc1ncccc1-c1nc2ccc(-n3ccc(C(F)F)n3)nc2n1-c1ccc2c(c1)CC[C@@H]2NC(=O)c1ccc(O)c(C=O)c1` [Example 116, (S)—N-(5-(2-(2-aminopyridin-3-yl)-5-(3-(difluoromethyl)-1H-pyrazol-1-yl)-3H-imidazo[4,5-b]pyridin-3-yl)-2,3-dihydro-1H-inden-1-yl)-3-formyl-4-hydroxybenzamide], the IC50 on AKT1 WT fell in the range of 10 to 100 nM; on AKT2 it was 100 to 2000 nM; on AKT1 E17K, 10 to 100 nM; in assay [1] it was 100 to 2000 nM.

`Nc1ncccc1-c1nc2ccc(-c3ccccc3)nc2n1-c1ccc2c(c1)CC[C@@H]2NC(=O)c1cc(C=O)c(O)cn1` [Example 40, N-[(1S)-5-[2-(2-aminopyridin-3-yl)-5-phenylimidazo[4,5-b]pyridin-3-yl]-2,3-dihydro-1H-inden-1-yl]-4-formyl-5-hydroxypyridine-2-carboxamide]: the IC50 at AKT1 WT is 100 to 2000 nM; on AKT2 it was ≥ 2000 nM; at AKT1 E17K it was ≥ 2000 nM; in assay [1] it was ≥ 2000 nM.

On to `Nc1ncccc1-c1nc2ccc(C(F)(F)F)nc2n1-c1ccc2c(c1)CC[C@@H]2NC(=O)c1ccc(O)c(C=O)c1` [Example 55, (S)—N-(5-(2-(2-aminopyridin-3-yl)-5-(trifluoromethyl)-3H-imidazo[4,5-b]pyridin-3-yl)-2,3-dihydro-1H-inden-1-yl)-3-formyl-4-hydroxybenzamide], for which the IC50 at AKT1 WT is 100 to 2000 nM; on AKT2, ≥ 2000 nM; on AKT1 E17K, 100 to 2000 nM; in assay [1], ≥ 2000 nM.

In the case of `Nc1ncccc1-c1nc2ccc(-c3cncnc3)nc2n1-c1ccc2c(c1)CC[C@@H]2NC(=O)c1ccc(O)c(C=O)c1` [Example 58, N-[(1S)-5-[2-(2-aminopyridin-3-yl)-5-(pyrimidin-5-yl)imidazo[4,5-b]pyridin-3-yl]-2,3-dihydro-1H-inden-1-yl]-3-formyl-4-hydroxybenzamide], the IC50 lay within 10 to 100 nM on AKT1 WT, 100 to 2000 nM on AKT2, 10 to 100 nM at AKT1 E17K and 10 to 100 nM in assay [1].

In the case of `Nc1ncccc1-c1nc2ccc(-c3ccncc3)nc2n1-c1ccc2c(c1)CC[C@@H]2NC(=O)c1ccc(O)c(C=O)c1` [Example 24, N-[(1S)-5-[2-(2-aminopyridin-3-yl)-5-(pyridin-4-yl)imidazo[4,5-b]pyridin-3-yl]-2,3-dihydro-1H-inden-1-yl]-3-formyl-4-hydroxybenzamide], the IC50 on AKT1 WT lay within 10 to 100 nM; on AKT2 it was 100 to 2000 nM; on AKT1 E17K, 10 to 100 nM; in assay [1] it was 10 to 100 nM.
